Results taken from US20130072430A1, “METHODS FOR TREATMENT OR PROPHYLAXIS OF KIDNEY OR LIVER DYSFUNCTION” (NPS PHARMACEUTICALS, INC., priority 2010, published 2013).

Tested on: Human patients with short bowel syndrome
Test: Example 1: liver diagnostic biomarkers (total bilirubin, ALT, AST, ALP) in short bowel syndrome patients, every four weeks for 24 weeks
Assay type: in vivo
Set-up: AST (SGOT) Change from Baseline, Median / ALT (SGPT), Median / TOTAL BILIRUBIN, Median / TOTAL BILIRUBIN Change from Baseline, Median / ALT (SGPT) Change from Baseline, Median / AST (SGOT), Median: unit not given here
Method: Human patients with short bowel syndrome were divided into three groups: a control group (16 total individuals) to receive placebo, an experimental group (35 total individuals) to receive teduglutide at 0.05 mg/kg/day throughout the study, and an experimental group (32 total individuals) to receive teduglutide at 0.1 mg/kg/day throughout the study. Patients were treated by subcutaneous injection of placebo or the appropriate dose of teduglutide. As individuals with short bowel syndrome are likely to experience associated liver and kidney disease, known biomarkers of liver and kidney function were monitored every four weeks, for 24 weeks. The liver biomarkers tested included total bilirubin, ALT and AST and ALP. The kidney biomarkers tested included urea nitrogen, creatinine and GFR. Before administration of placebo or teduglutide, diagnostic biomarker levels were tested to establish a baseline for each individual.
To visualize the effect of GLP-2 on the levels of the diagnostic biomarkers, the average change from baseline was calculated for the placebo and teduglutide treated groups for each visit after a baseline was established. The average change from baseline of each group is depicted in FIGS. […]. The numerical figures for each diaanostic biomarker at each time point are depicted in Table 1.
The efficacy of teduglutide in treating liver dysfunction was further tested by sorting the data into two groups: individuals with abnormal baseline values of liver diagnostic biomarkers; and individuals with normal baseline values of liver diagnostic biomarkers. The mean diagnostic biomarker change from baseline for these two groups is shown for ALT (FIGS. 5 and 6) and AST (FIGS. 7 and 8). […] These changes were significant when compared to baseline levels for the group, and when compared to placebo (see FIGS. 5 and 7).
The raw data for this sorting is reproduced in Table 2 below.

Compound: CC[C@H](C)[C@H](NC(=O)[C@H](Cc1ccccc1)NC(=O)[C@H](CC(=O)O)NC(=O)[C@H](CCCNC(=N)N)NC(=O)[C@H](C)NC(=O)[C@H](C)NC(=O)[C@H](CC(C)C)NC(=O)[C@H](CC(N)=O)NC(=O)[C@H](CC(=O)O)NC(=O)[C@H](CC(C)C)NC(=O)[C@@H](NC(=O)[C@@H](NC(=O)[C@H](CC(N)=O)NC(=O)[C@H](CCSC)NC(=O)[C@H](CCC(=O)O)NC(=O)[C@H](CC(=O)O)NC(=O)[C@H](CO)NC(=O)[C@H](Cc1ccccc1)NC(=O)[C@H](CO)NC(=O)CNC(=O)[C@H](CC(=O)O)NC(=O)CNC(=O)[C@@H](N)Cc1c[nH]cn1)[C@@H](C)O)[C@@H](C)CC)C(=O)N[C@@H](CC(N)=O)C(=O)N[C@@H](Cc1c[nH]c2ccccc12)C(=O)N[C@@H](CC(C)C)C(=O)N[C@H](C(=O)N[C@@H](CCC(N)=O)C(=O)N[C@H](C(=O)N[C@@H](CCCCN)C(=O)N[C@H](C(=O)N[C@H](C(=O)N[C@@H](CC(=O)O)C(=O)O)[C@@H](C)O)[C@@H](C)CC)[C@@H](C)O)[C@@H](C)CC [teduglutide]
- ALT (SGPT) Change from Baseline, Median (0.05 mg/kg/day, DW24): −5.0
- ALT (SGPT), Mean (SD) (0.05 mg/kg/day, DW24): 31.7 (26.63)
- ALT (SGPT), Median (0.05 mg/kg/day, DW24): 20.0
- AST (SGOT) Change from Baseline, Mean (SD) (0.05 mg/kg/day, DW24): −6.8 (14.29)
- AST (SGOT) Change from Baseline, Median (0.05 mg/kg/day, DW24): −4.5
- AST (SGOT), Mean (SD) (0.05 mg/kg/day, DW24): 27.7 (10.23)
- AST (SGOT), Median (0.05 mg/kg/day, DW24): 25.0
- TOTAL BILIRUBIN Change from Baseline, Mean (SD) (0.05 mg/kg/day, DW24): −0.5 (7.11)
- TOTAL BILIRUBIN Change from Baseline, Median (0.05 mg/kg/day, DW24): 0.0
- TOTAL BILIRUBIN, Mean (SD) (0.05 mg/kg/day, DW24): 10.0 (6.28)
- TOTAL BILIRUBIN, Median (0.05 mg/kg/day, DW24): 8.0
- ALKALINE PHOSPHATASE Change from Baseline, Mean (SD) (0.10 mg/kg/day, DW4): −11.3 (32.19)
- ALKALINE PHOSPHATASE Change from Baseline, Median (0.10 mg/kg/day, DW4): −10.5
- ALKALINE PHOSPHATASE, Mean (SD) (0.10 mg/kg/day, DW4): 147.5 (74.98)
- ALKALINE PHOSPHATASE, Median (0.10 mg/kg/day, DW4): 124.0
- ALT (SGPT) Change from Baseline, Mean (SD) (0.10 mg/kg/day, DW4): −11.6 (22.98)
- ALT (SGPT) Change from Baseline, Median (0.10 mg/kg/day, DW4): −6.5
- ALT (SGPT), Mean (SD) (0.10 mg/kg/day, DW4): 38.6 (23.30)
- ALT (SGPT), Median (0.10 mg/kg/day, DW4): 30.0
- AST (SGOT) Change from Baseline, Mean (SD) (0.10 mg/kg/day, DW4): −7.3 (15.21)
- AST (SGOT) Change from Baseline, Median (0.10 mg/kg/day, DW4): −5.0
- AST (SGOT), Mean (SD) (0.10 mg/kg/day, DW4): 33.5 (17.00)
- AST (SGOT), Median (0.10 mg/kg/day, DW4): 28.0
- TOTAL BILIRUBIN Change from Baseline, Mean (SD) (0.10 mg/kg/day, DW4): −4.0 (17.41)
- TOTAL BILIRUBIN Change from Baseline, Median (0.10 mg/kg/day, DW4): −1.0
- TOTAL BILIRUBIN, Mean (SD) (0.10 mg/kg/day, DW4): 9.0 (5.65)
- TOTAL BILIRUBIN, Median (0.10 mg/kg/day, DW4): 7.0
- ALKALINE PHOSPHATASE Change from Baseline, Mean (SD) (0.10 mg/kg/day, DW8): −21.2 (41.41)
- ALKALINE PHOSPHATASE Change from Baseline, Median (0.10 mg/kg/day, DW8): −20.0
- ALKALINE PHOSPHATASE, Mean (SD) (0.10 mg/kg/day, DW8): 139.2 (75.84)
- ALKALINE PHOSPHATASE, Median (0.10 mg/kg/day, DW8): 114.0
- ALT (SGPT) Change from Baseline, Mean (SD) (0.10 mg/kg/day, DW8): −15.7 (26.87)
- ALT (SGPT) Change from Baseline, Median (0.10 mg/kg/day, DW8): −8.0
- ALT (SGPT), Mean (SD) (0.10 mg/kg/day, DW8): 34.1 (19.74)
- ALT (SGPT), Median (0.10 mg/kg/day, DW8): 28.5
- AST (SGOT) Change from Baseline, Mean (SD) (0.10 mg/kg/day, DW8): −10.3 (16.56)
- AST (SGOT) Change from Baseline, Median (0.10 mg/kg/day, DW8): −5.0
- AST (SGOT), Mean (SD) (0.10 mg/kg/day, DW8): 29.3 (12.52)
- AST (SGOT), Median (0.10 mg/kg/day, DW8): 28.0
- TOTAL BILIRUBIN Change from Baseline, Mean (SD) (0.10 mg/kg/day, DW8): −3.8 (13.91)
- TOTAL BILIRUBIN Change from Baseline, Median (0.10 mg/kg/day, DW8): −1.0
- TOTAL BILIRUBIN, Mean (SD) (0.10 mg/kg/day, DW8): 9.4 (9.80)
- TOTAL BILIRUBIN, Median (0.10 mg/kg/day, DW8): 7.0
- ALKALINE PHOSPHATASE Change from Baseline, Mean (SD) (0.10 mg/kg/day, DW12): −13.1 (55.43)
- ALKALINE PHOSPHATASE Change from Baseline, Median (0.10 mg/kg/day, DW12): −16.5
- ALKALINE PHOSPHATASE, Mean (SD) (0.10 mg/kg/day, DW12): 145.9 (83.34)
- ALKALINE PHOSPHATASE, Median (0.10 mg/kg/day, DW12): 115.0
- ALT (SGPT) Change from Baseline, Mean (SD) (0.10 mg/kg/day, DW12): −10.6 (30.82)
- ALT (SGPT) Change from Baseline, Median (0.10 mg/kg/day, DW12): −11.0
- ALT (SGPT), Mean (SD) (0.10 mg/kg/day, DW12): 40.4 (22.11)
- ALT (SGPT), Median (0.10 mg/kg/day, DW12): 35.0
- AST (SGOT) Change from Baseline, Mean (SD) (0.10 mg/kg/day, DW12): −3.3 (21.39)
- AST (SGOT) Change from Baseline, Median (0.10 mg/kg/day, DW12): −3.5
- AST (SGOT), Mean (SD) (0.10 mg/kg/day, DW12): 36.4 (20.41)
- AST (SGOT), Median (0.10 mg/kg/day, DW12): 31.5
- TOTAL BILIRUBIN Change from Baseline, Mean (SD) (0.10 mg/kg/day, DW12): −2.9 (12.93)
- TOTAL BILIRUBIN Change from Baseline, Median (0.10 mg/kg/day, DW12): 0.0
- TOTAL BILIRUBIN, Mean (SD) (0.10 mg/kg/day, DW12): 10.3 (11.39)
- TOTAL BILIRUBIN, Median (0.10 mg/kg/day, DW12): 7.0
- ALKALINE PHOSPHATASE Change from Baseline, Mean (SD) (0.10 mg/kg/day, DW16): −21.3 (59.79)
- ALKALINE PHOSPHATASE Change from Baseline, Median (0.10 mg/kg/day, DW16): −20.5
- ALKALINE PHOSPHATASE, Mean (SD) (0.10 mg/kg/day, DW16): 137.7 (81.33)
- ALKALINE PHOSPHATASE, Median (0.10 mg/kg/day, DW16): 108.5
- ALT (SGPT) Change from Baseline, Mean (SD) (0.10 mg/kg/day, DW16): −10.0 (35.59)
- ALT (SGPT) Change from Baseline, Median (0.10 mg/kg/day, DW16): −10.0
- ALT (SGPT), Mean (SD) (0.10 mg/kg/day, DW16): 39.7 (27.97)
- ALT (SGPT), Median (0.10 mg/kg/day, DW16): 30.0
- AST (SGOT) Change from Baseline, Mean (SD) (0.10 mg/kg/day, DW16): −6.6 (22.80)
- AST (SGOT) Change from Baseline, Median (0.10 mg/kg/day, DW16): −4.0
- AST (SGOT), Mean (SD) (0.10 mg/kg/day, DW16): 33.0 (16.71)
- AST (SGOT), Median (0.10 mg/kg/day, DW16): 30.0
- TOTAL BILIRUBIN Change from Baseline, Mean (SD) (0.10 mg/kg/day, DW16): −3.6 (14.89)
- TOTAL BILIRUBIN Change from Baseline, Median (0.10 mg/kg/day, DW16): −0.5
- TOTAL BILIRUBIN, Mean (SD) (0.10 mg/kg/day, DW16): 9.8 (9.14)
- TOTAL BILIRUBIN, Median (0.10 mg/kg/day, DW16): 7.5
- ALKALINE PHOSPHATASE Change from Baseline, Mean (SD) (0.10 mg/kg/day, DW20): −18.5 (63.67)
- ALKALINE PHOSPHATASE Change from Baseline, Median (0.10 mg/kg/day, DW20): −23.0
- ALKALINE PHOSPHATASE, Mean (SD) (0.10 mg/kg/day, DW20): 137.1 (82.59)
- ALKALINE PHOSPHATASE, Median (0.10 mg/kg/day, DW20): 107.0
- ALT (SGPT) Change from Baseline, Mean (SD) (0.10 mg/kg/day, DW20): −8.2 (37.70)
- ALT (SGPT) Change from Baseline, Median (0.10 mg/kg/day, DW20): −9.0
- ALT (SGPT), Mean (SD) (0.10 mg/kg/day, DW20): 41.3 (29.36)
- ALT (SGPT), Median (0.10 mg/kg/day, DW20): 29.0
- AST (SGOT) Change from Baseline, Mean (SD) (0.10 mg/kg/day, DW20): −4.9 (24.96)
- AST (SGOT) Change from Baseline, Median (0.10 mg/kg/day, DW20): −2.5
- AST (SGOT), Mean (SD) (0.10 mg/kg/day, DW20): 34.9 (19.82)
